The text below walks through data of patent US20150344444A1, “BET-PROTEIN-INHIBITING DIHYDROXYQUINOXALINONES” (BAYER PHARMA AKTIENGESELLSCHAFT, priority 2012, published 2015).

pIC50: −log10 of the molar value.

The target of test [1] is T1, BRD4 Bromo Domain 1 [BRD4(1)] (Homo sapiens, UniProt O60885).
T1 construct: N-terminally His6-tagged BRD4(1) (amino acids 67-152); made in house; host or cells: E. coli
Nature of the test: BRD4(1)/acetylated peptide H4 binding assay (TR-FRET). The following applies: inhibition of interaction between His6-tagged BRD4(1) (amino acids 67-152) and acetylated histone H4 peptide. The gist of the method: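 His6-BRD4(1) (aa 67-152, E. coli), 10 nM final, with biotinylated tetra-acetylated H4 peptide in HEPES pH 7.5 buffer; 11 compound concentrations 0.1 nM-20 μM in duplicate, 10 min preincubation, then 1 h at 22 °C and ≥3 h at 4 °C. TR-FRET 665/620 ratio; IC50 by 4-parameter fit.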

Test [2] deals with B16F10 cells. The test can be described thus: B16F10 cell proliferation assay (alamarBlue). It counts as cell-based. The following applies: B16-F10; inhibition of cell proliferation, 96 hours, mouse melanoma cell line. The method in brief:
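Mouse B16F10 melanoma cells (300-500/well, DMEM, 10% FCS) treated with compound at 1E-5 to 1E-8 M for 96 h at 37° C. alamarBlue fluorescence (ex 530/em 590 nm) before and after treatment; the difference compared to buffer-treated cells gives IC50 for proliferation inhibition.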

A word on the pIC50: it is the negative decadic logarithm of the IC50, by convention in mol/L. A low value points to a high IC50. For the molecule `C[C@@H]1C(=O)N(C)c2ccc(Nc3ccc(C(=O)NC4CC4)cc3)cc2N1C1CCCC1` [Example 2, 4-{[(3R)-4-cyclopentyl-1,3-dimethyl-2-oxo-1,2,3,4-tetrahydroquinoxalin-6-yl]amino}-N-cyclopropylbenzamide], the pIC50 was 6.84 in test [1] and 5.77 in test [2].

With `C[C@@H]1C(=O)N(C)c2ccc(Nc3ccc(S(=O)(=O)N4CCN(C)CC4)cc3)cc2N1Cc1ccccc1` [Example 15, (3R)-4-benzyl-1,3-dimethyl-6-({4-[(4-methylpiperazin-1-yl)sulphonyl]phenyl}amino)-3,4-dihydroquinoxalin-2(1H)-one], the pIC50 in test [1] is 6.89; in test [2], 6.65.

As for `COc1ccc(CN2c3cc(Nc4ccc(C(=O)N5CCOCC5)cc4)ccc3N(C)C(=O)[C@H]2C)cc1` [Example 18, (3R)-4-(4-methoxybenzyl)-1,3-dimethyl-6-{[4-(morpholin-4-ylcarbonyl)phenyl]amino}-3,4-dihydroquinoxalin-2(1H)-one], the values for the pIC50 in test [1] and in test [2] were 6.72 and 6.54, respectively.

For the molecule `C[C@@H]1C(=O)N(C)c2ccc(Nc3ccc(C(=O)NCC4COC4)cc3)cc2N1C1CCOCC1` [Example 28, 4-{[(3R)-1,3-dimethyl-2-oxo-4-(tetrahydro-2H-pyran-4-yl)-1,2,3,4-tetrahydroquinoxalin-6-yl]amino}-N-(oxetan-3-ylmethyl)benzamide], the pIC50 is 6.44 in test [1] and 5.55 in test [2].

Turning to `COc1cc(C(=O)NC2CCC(N3CCN(CC4CC4)CC3)CC2)ccc1Nc1ccc2c(c1)N(C1CCOCC1)[C@H](C)C(=O)N2C` (stereo partly drawn) [Example 37, N-{4-[4-(cyclopropylmethyl)piperazin-1-yl]cyclohexyl}-4-{[(3R)-1,3-dimethyl-2-oxo-4-(tetrahydro-2H-pyran-4-yl)-1,2,3,4-tetrahydroquinoxalin-6-yl]amino}-3-methoxybenzamide], the pIC50 in test [1] is 6.37; in test [2], 5.82.

`C[C@@H]1C(=O)N(C)c2ccc(Nc3ccc(C(=O)NC4CCN(C)CC4)cc3)cc2N1C1CCCCCC1` [Example 23, 4-{[(3R)-4-cycloheptyl-1,3-dimethyl-2-oxo-1,2,3,4-tetrahydroquinoxalin-6-yl]amino}-N-(1-methylpiperidin-4-yl)benzamide]: the pIC50 is 6.75 in test [1] and 5.71 in test [2].

For `C[C@@H]1C(=O)N(C)c2ccc(Nc3ccc(C(=O)NCC4COC4)cc3)cc2N1Cc1ccccc1` [Example 9, 4-{[(3R)-4-benzyl-1,3-dimethyl-2-oxo-1,2,3,4-tetrahydroquinoxalin-6-yl]amino}-N-(oxetan-3-ylmethyl)benzamide], the results for the pIC50 in test [1] and in test [2] were 6.60 and 6.44, respectively.

Turning to `CC(C)N1CCN(C(=O)c2ccc(Nc3ccc4c(c3)N(C3CCOCC3)[C@H](C)C(=O)N4C)cc2)CC1` [Example 33], the pIC50 in test [1] was 6.51; in test [2], 5.76.

As to `COc1cc(C(=O)N2CCN(C)CC2)ccc1Nc1ccc2c(c1)N(C1CCOCC1)[C@H](C)C(=O)N2C` [Example 38, (3R)-6-({2-methoxy-4-[(4-methylpiperazin-1-yl)carbonyl]phenyl}amino)-1,3-dimethyl-4-(tetrahydro-2H-pyran-4-yl)-3,4-dihydroquinoxalin-2(1H)-one], the pIC50 in test [1] was 6.57; in test [2], 5.75.

`COc1cc(C(=O)NC2CCN(C)CC2)ccc1Nc1ccc2c(c1)N(C1CCOCC1)[C@H](C)C(=O)N2C` [Example 36, 4-{[(3R)-1,3-dimethyl-2-oxo-4-(tetrahydro-2H-pyran-4-yl)-1,2,3,4-tetrahydroquinoxalin-6-yl]amino}-3-methoxy-N-(1-methylpiperidin-4-yl)benzamide]: the pIC50 in test [1] is 6.32; in test [2], 5.68.
